According to patent publication US9597407B2, “Targeted antimicrobial moieties” (C3 Jian, Inc., priority 2009, dated 2017):
“Also recorded” adds a separate entry of the source.

Each substance was assayed on bacteria (assay: Binding of targeting peptides to microorganisms (Table 3)). Conditions: microorganism bound by the targeting peptide; binding in aqueous buffers chosen by peptide solubility, preferably 1x PBS.

| Substance | Target(s) |
| --- | --- |
| PF-202 (ALNRASLRLALGE; Peptide with targeting and/or antimicrobial activity) | S. epidermidis and M. luteus and E. coli and MRSA and E. faecalis and C. jeikeium and C. jejuni |
| PF-217 (DWEFTHKTIPQKK; Peptide with targeting and/or antimicrobial activity) | S. mutans |
| PF-351 (YLFFKGKKVAEEEATKDEVKR; Peptide with targeting and/or antimicrobial activity) | S. mutans |
| PF-308 (QQYLILDRM; Peptide with targeting and/or antimicrobial activity) | C. difficile |
| PF-333 (YMTKKLVEMAEQQMAGKSNR; Peptide with targeting and/or antimicrobial activity) | S. mutans |
| PF-172 (LTGVRRPWRAPWAGTSGWALR; Peptide with targeting and/or antimicrobial activity) | S. epidermidis and M. luteus and E. coli and P. aeruginosa and MRSA and E. faecalis and C. jejuni |
| PF-242 (KLFEDPLIKSKAVENFQTTWHEQCLAKELAKNM; Peptide with targeting and/or antimicrobial activity) | S. mutans; also recorded: E. coli |
| PF-216 (ESVDKITEALEEDGFPAKVQ; Peptide with targeting and/or antimicrobial activity) | S. mutans; also recorded: E. coli |
| PF-152 (VGYFIWKDSHSRKG; Peptide with targeting and/or antimicrobial activity) | S. epidermidis and C. albicans and MRSA and E. faecalis and C. jeikeium |

Same assay, conditions: microorganism the targeting peptide binds; binding in aqueous buffers that varied with peptide solubility, preferably 1x PBS

| Substance | Target(s) |
| --- | --- |
| 1T-198 (MPVSKKRYMLSSAYATALGICYGQVATDEKESEITAIPDLLDYLSVEEYLL; Peptide with targeting and/or antimicrobial activity) [Peptide 1T-198] | P. gingivalis; also recorded: S. epidermidis; also recorded: S. gordonii; also recorded: S. mitis; also recorded: S. mutans; also recorded: S. oralis; also recorded: S. sanguinis |
| 1T-252 (MKKNLKRFYALVLGFIIGCLFVSILIFIGY; Peptide with targeting and/or antimicrobial activity) [Peptide 1T-252] | F. nucleatum; also recorded: S. sanguinis |
| 1T-259 (EKLKKILLKLAVCGKAWYTL; Peptide with targeting and/or antimicrobial activity) [Peptide 1T-259] | F. nucleatum; also recorded: P. gingivalis; also recorded: T. denticola; also recorded: S. mitis; also recorded: S. mutans; also recorded: S. oralis; also recorded: S. sanguinis |
| PF-039 (MLEEKNKSL; Peptide with targeting and/or antimicrobial activity) | P. mirabilis; also recorded: C. jeikeium |
| 1T-196 (KPEKEKLDTNTLMKVVNKALSLFDRLLIKFGA; Peptide with targeting and/or antimicrobial activity) [Peptide 1T-196] | F. nucleatum; also recorded: S. sanguinis |
| 1T-273 (YNEPNYKWLESYKIYKQRCEDRTGMYYTEET; Peptide with targeting and/or antimicrobial activity) [Peptide 1T-273] | F. nucleatum; also recorded: P. gingivalis; also recorded: T. denticola; also recorded: S. mitis; also recorded: S. mutans; also recorded: S. oralis |
| PF-050 (SYYLKRREEKGK; Peptide with targeting and/or antimicrobial activity) | S. epidermidis; also recorded: M. luteus; also recorded: E. coli; also recorded: C. jeikeium |
| 1T-267 (RIKEERKNRSYKFFIWRLFDEKTGFI; Peptide with targeting and/or antimicrobial activity) [Peptide 1T-267] | A. naeslundii; also recorded: F. nucleatum; also recorded: P. gingivalis; also recorded: T. denticola; also recorded: S. mitis; also recorded: S. mutans; also recorded: S. oralis; also recorded: S. sanguinis |
| 1T-256 (KGKSLMPLLKQINQWGKLYL; Peptide with targeting and/or antimicrobial activity) [Peptide 1T-256] | S. sanguinis |
| 1T-291 (DMKIIKLYIKILSFLFIKYCNKKLNSVKLKA; Peptide with targeting and/or antimicrobial activity) [Peptide 1T-291] | A. naeslundii; also recorded: F. nucleatum; also recorded: P. gingivalis; also recorded: T. denticola; also recorded: S. mitis; also recorded: S. mutans; also recorded: S. oralis |

Same assay, conditions: peptide binding in aqueous buffers that varied depending on peptide solubility; preferably 1x PBS

| Substance | Target(s) (microorganism bound by the targeting peptide) | Target(s) (microorganisms bound by the targeting peptide) |
| --- | --- | --- |
| PF-674 (DGCDSEPALTYR; Peptide with targeting and/or antimicrobial activity) | S. mutans; also recorded: E. coli |  |
| PF-784 (MAMTTVDNIVGLVIAVALMAFLFAALLFPEKF; Peptide with targeting and/or antimicrobial activity) | Mycobacteria spp. |  |
| PF-568 (TQAVQVKTAQAQQQ; Peptide with targeting and/or antimicrobial activity) |  | S. epidermidis |
| PF-703 (MTTVDNIVGLVIAVALMAFLFAALLFPEKF; Peptide with targeting and/or antimicrobial activity) | Mycobacteria spp |  |
| PF-438 (QPYFQNQFKKITGYTPLQYRKEKR; Peptide with targeting and/or antimicrobial activity) |  | S. epidermidis; also recorded: E. coli; also recorded: S. pneumoniae; also recorded: C. jeikeium; also recorded: C. jejuni |
| PF-778 (MNLILTAHGT; Peptide with targeting and/or antimicrobial activity) | Mycobacteria spp. |  |
| PF-711 (KTAGPTGTIYKTN; Peptide with targeting and/or antimicrobial activity) | S. mutans |  |
| PF-788 (GLITVFAGTARILQLRRAAKKTHAAALR; Peptide with targeting and/or antimicrobial activity) | Mycobacteria spp. |  |
| PF-671 (TVSAFRTVH; Peptide with targeting and/or antimicrobial activity) | S. mutans; also recorded: E. coli |  |
| PF-735 (YDPLFPNDKN; Peptide with targeting and/or antimicrobial activity) | S. mutans; also recorded: E. coli |  |
| PF-779 (IYGDFFNFYLCDISLKVNGLQPGGPVRTVKLFGQPTGRCTPQ; Peptide with targeting and/or antimicrobial activity) | Mycobacteria spp. |  |
| PF-787 (MTERQRRALLKQHPEVVSWSDYLEKRKRRTGTAG; Peptide with targeting and/or antimicrobial activity) | Mycobacteria spp. |  |
| ASKQASKQASKQASKQASKQASRSLKNHLL [PF-523] |  | S. epidermidis; also recorded: M. luteus; also recorded: C. albicans; also recorded: S. pneumoniae; also recorded: C. jeikeium; also recorded: C. jejuni |
| PF-506 (SGRGFALIVVLFILLIIVGAACIR; Peptide with targeting and/or antimicrobial activity) |  | S. mutans; also recorded: E. coli |
| PF-669 (RADRIESYPADGDRVITLWRNPYR; Peptide with targeting and/or antimicrobial activity) | Mycobacteria spp |  |

Same assay, conditions: peptide binding in aqueous buffers varied by peptide solubility; preferably 1x PBS

| Substance | Target(s) (microorganism bound by the targeting peptide) |
| --- | --- |
| 1T-53 (SDILAEMFEKGELQTLVKDAAAKANA; Peptide with targeting and/or antimicrobial activity) [Peptide 1T-53] | P. aeruginosa |
| 1T-64 (QTVHHIHMHVLGQRQMHWPPG; Peptide with targeting and/or antimicrobial activity) [Peptide 1T-64] | S. aureus; also recorded: S. epidermidis; also recorded: C. jeikeium; also recorded: C. xerosis; also recorded: C. striatum; also recorded: P. aeruginosa |
| 1T-89 (HEDDKRRGMSVEVLGFEVVQHEE; Peptide with targeting and/or antimicrobial activity) [Peptide 1T-89] | S. mitis; also recorded: S. mutans |
| 1T-26 (LTILPTTFFAIIVPILAVAFIAYSGFKIKGIVEHKDQW; Peptide with targeting and/or antimicrobial activity) [Peptide 1T-26] | S. mutans; also recorded: S. aureus; also recorded: S. epidermidis; also recorded: C. jeikeium; also recorded: C. xerosis; also recorded: C. striatum; also recorded: P. aeruginosa |
| 1T-61 (HATLLPAVREAISRQLLPALVPRG; Peptide with targeting and/or antimicrobial activity) [Peptide 1T-61] | P. aeruginosa |
| 1T-27 (ALFVSLEQFLVVVAKSVFALCHSGTLS; Peptide with targeting and/or antimicrobial activity) [Peptide 1T-27] | S. mutans; also recorded: S. aureus; also recorded: S. epidermidis; also recorded: C. jeikeium; also recorded: C. xerosis; also recorded: C. striatum; also recorded: P. aeruginosa |
| 1T-113 (HGAHQRTGQRLHHHRGRTVSGCRQNPVAGVDPDEHR; Peptide with targeting and/or antimicrobial activity) [Peptide 1T-113] | S. mitis |
| 1T-74 (DIDWGRKISCAAGVAYGAIDGCATTV; Peptide with targeting and/or antimicrobial activity) [Peptide 1T-74] | S. pneumoniae |
| 1T-107 (SPVPRFTAVGGVSRGSP; Peptide with targeting and/or antimicrobial activity) [Peptide 1T-107] | A. naeslundii; also recorded: S. epidermidis; also recorded: S. gordonii; also recorded: S. mitis; also recorded: S. mutans; also recorded: S. oralis; also recorded: S. salivarious; also recorded: S. sanguinis |
| 1T-122 (GAIPDPVTHRVDWEEDHQTRPSR; Peptide with targeting and/or antimicrobial activity) [Peptide 1T-122] | S. mitis |
